Patent EP3468532B1, “DISPENSING DEVICE AND PHARMACEUTICAL COMPOSITION FOR THE TREATMENT OF RHINITIS” (Glenmark Specialty S.A., priority 2017, dated 2019)
Read-outs that look alike come from different tables or passages of the source. Values belong to the molecule of their own block, whether it stands above or below them.

What was measured:
[1] = Example 7: Phase III clinical study, plasma pharmacokinetics of TP-1; format: in vivo, human; settings: for AUC / Cmax / Tmax: human, plasma; for Tmax: read-out: Tmax, Median (range)
From the text: This study consisted of four visits to the study site. After the initial screening visit (Visit 1), subjects who met all study selection criteria were required to undergo a single-blind placebo run-in period for 7-10 days. Following the completion of the run-in period, eligible subjects meeting the randomization criteria were enrolled and randomized to one of the four treatment arms. Subjects were dispensed medication as per the randomization list. Randomized subjects were required to undergo a 2 week (14 days) treatment period as per the protocol to assess the efficacy and safety of the assigned treatment. Subjects were instructed to record the symptom scores in a symptom assessment diary. They were also scheduled to have at least two blood samples for PK assessment during the treatment period.
• Plasma PK: Maximum plasma concentration (Cmax), time to attain Cmax (Tmax), and area under the plasma concentration-time curve over the dosing interval (AUCtau) will be estimated for mometasone furoate and olopatadine on Day 1 and Day 8 based on the pharmacokinetic analysis set (PKAS).
The pharmacokinetics (PK) of TP-1 were measured for a subset of patients in the phase III clinical study on day 1 and day 8 (steady state).

[2] = Example 11: single-dose cross-over study, pharmacokinetics of mometasone furoate; format: in vivo, human
Method: The pharmacokinetics of mometasone furoate in a fixed dose combination of mometasone furoate and olopatadine hydrochloride nasal spray was evaluated in a clinical trial. The clinical trial was a randomized, single-center, single-dose, open-label, three-period, six-sequence, cross-over study to evaluate three treatments administered by nasal spray. The three treatments included a combination of mometasone furoate and olopatadine hydrochloride nasal spray, mometasone furoate nasal spray and Nasonex® nasal spray.
(§1) The study consisted of a screening visit, 3 single-dose treatment periods with washout periods of 7 to 14 days between dosing in each treatment period, an early withdrawal visit if applicable, and a follow-up telephone call (or visit) 1 to 7 days after completing the third treatment period.
(§2) A total of 30 subjects were randomized to 1 of 6 treatment sequences and received at least 1 dose of study drug. All 30 subjects were included in the safety analysis set and the pharmacokinetic subset. All but 2 subjects completed the study per protocol.

[3] = human, in vivo
Method: The pharmacokinetics of olopatadine in a fixed dose combination of mometasone furoate and olopatadine hydrochloride nasal spray was evaluated in a clinical trial. The clinical trial was a randomized, single-center, single-dose, open-label, three-period, six-sequence, cross-over study to evaluate three treatments administered as a nasal spray. The three treatments included a combination of mometasone furoate and olopatadine hydrochloride nasal spray, olopatadine hydrochloride nasal spray and PATANASE® nasal spray.
as §1, §2

[4] = patients receiving TP-1, Day 8 (steady state)
[5] = human, in vivo, inhaled or intranasal, mometasone furoate in fixed dose combination nasal spray, single dose

AUC ([1]; mometasone furoate in plasma, patients receiving TP-1, Day 1, read-out: AUCtau, Geo Mean (Geo CV%)): 0.0262 ng·h/mL
AUC ([1]; mometasone furoate in plasma, patients receiving TP-1, Day 1, read-out: AUCtau, Mean (SD)): 0.0286 ng·h/mL
AUC ([1]; mometasone furoate in plasma, patients receiving TP-1, Day 1, read-out: AUCtau, Min-Max): 0.0121 to 0.0725 ng·h/mL
Cmax ([1]; mometasone furoate in plasma, patients receiving TP-1, Day 1, read-out: Cmax, Geo Mean (Geo CV%)): 0.00627 ng/mL
Cmax ([1]; mometasone furoate in plasma, patients receiving TP-1, Day 1, read-out: Cmax, Mean (SD)): 0.00678 ng/mL
Cmax ([1]; mometasone furoate in plasma, patients receiving TP-1, Day 1, read-out: Cmax, Min-Max): 0.00267 to 0.0128 ng/mL
AUC ([1]; mometasone furoate in plasma, patients receiving TP-1, Day 8 (steady state), read-out: AUCtau, Geo Mean (Geo CV%)): 0.0527 ng·h/mL
AUC ([1]; mometasone furoate in plasma, patients receiving TP-1, Day 8 (steady state), read-out: AUCtau, Mean (SD)): 0.0584 ng·h/mL
AUC ([1]; mometasone furoate in plasma, patients receiving TP-1, Day 8 (steady state), read-out: AUCtau, Min-Max): 0.0257 to 0.124 ng·h/mL
Cmax ([1]; mometasone furoate in plasma, patients receiving TP-1, Day 8 (steady state), read-out: Cmax, Geo Mean (Geo CV%)): 0.00917 ng/mL
Cmax ([1]; mometasone furoate in plasma, patients receiving TP-1, Day 8 (steady state), read-out: Cmax, Mean (SD)): 0.00992 ng/mL
Cmax ([1]; mometasone furoate in plasma, patients receiving TP-1, Day 8 (steady state), read-out: Cmax, Min-Max): 0.00358 to 0.0161 ng/mL
Tmax ([1]; patients receiving TP-1, Day 1): 1 h
Tmax, Median (range) [1, 4]: 1.00 (0.25-2) hour
AUC(0-t) [2, 5]: 0.085 ng·h/mL
Cmax [2, 5]: 0.0108 ng/mL
Tmax [2, 5]: 1 h
AUC(0-inf) ([2]; human, in vivo, inhaled or intranasal, mometasone furoate in fixed dose combination nasal spray, single dose, read-out: AUC(0-infinity)): 0.104 ng·h/mL
Quantifiable concentrations observed until the last time point ([2]; single dose nasal spray): 72 h
SMILES: C[C@@H]1C[C@H]2[C@@H]3CCC4=CC(=O)C=C[C@]4(C)[C@@]3(Cl)[C@@H](O)C[C@]2(C)[C@@]1(OC(=O)c1ccco1)C(=O)CCl [Mometasone furoate]

Quantifiable concentrations observed until the last time point [3]: 48 h
AUC ([1]; olopatadine in plasma, patients receiving TP-1, Day 1, read-out: AUCtau, Geo Mean (Geo CV%)): 72.9 ng·h/mL
AUC ([1]; olopatadine in plasma, patients receiving TP-1, Day 1, read-out: AUCtau, Mean (SD)): 75.5 ng·h/mL
AUC ([1]; olopatadine in plasma, patients receiving TP-1, Day 1, read-out: AUCtau, Min-Max): 39.3 to 117 ng·h/mL
Cmax ([1]; olopatadine in plasma, patients receiving TP-1, Day 1, read-out: Cmax, Geo Mean (Geo CV%)): 18.8 ng/mL
Cmax ([1]; olopatadine in plasma, patients receiving TP-1, Day 1, read-out: Cmax, Mean (SD)): 19.8 ng/mL
Cmax ([1]; olopatadine in plasma, patients receiving TP-1, Day 1, read-out: Cmax, Min-Max): 8.7 to 31.6 ng/mL
AUC ([1]; olopatadine in plasma, patients receiving TP-1, Day 8 (steady state), read-out: AUCtau, Geo Mean (Geo CV%)): 85.7 ng·h/mL
AUC ([1]; olopatadine in plasma, patients receiving TP-1, Day 8 (steady state), read-out: AUCtau, Mean (SD)): 88.8 ng·h/mL
AUC ([1]; olopatadine in plasma, patients receiving TP-1, Day 8 (steady state), read-out: AUCtau, Min-Max): 53.4 to 138 ng·h/mL
Cmax ([1]; olopatadine in plasma, patients receiving TP-1, Day 8 (steady state), read-out: Cmax, Geo Mean (Geo CV%)): 18.7 ng/mL
Cmax ([1]; olopatadine in plasma, patients receiving TP-1, Day 8 (steady state), read-out: Cmax, Mean (SD)): 19.8 ng/mL
Cmax ([1]; olopatadine in plasma, patients receiving TP-1, Day 8 (steady state), read-out: Cmax, Min-Max): 9.67 to 37.3 ng/mL
Tmax ([1]; patients receiving TP-1, Day 1): 1 h
Tmax, Median (range) [1, 4]: 1.00 (0.25-2) hour
SMILES: CN(C)CC/C=C1/c2ccccc2COc2ccc(CC(=O)O)cc21 [Olopatadine]
